# Measured values taken from patent US3997662A, “Antibiotics and their preparation” (Rhone-Poulenc S.A., priority 1962, dated 1976).
# Where a name gives a salt, the structure may show the parent alone. Read-outs that look alike come from different tables or passages of the source.
# Experiments:
# Solubility = format: physicochemical
# numerous bacteria = experiment: Bacteriostatic activity (general statement); format: cell-based; conditions: including antibiotic-resistant bacteria
# Excerpt: For each organism, the lowest concentration of substance has been determined which, under the defined conditions, prevents all visible development in an appropriate nutritive broth. The results of various determinations are shown in Table VI, wherein the minimal bacteriostatic concentrations are expressed as micrograms of substance per cubic centimeter of experimental medium.
# [1] = system: transplantable tumours in the mouse; experiment: Anti-cancer activity (general statement)
# Klebsiella pneumoniae = experiment: Activity by turbidimetric estimation against a 9865 RP control; format: cell-based; conditions: purified product; units per mg, Klebsiella pneumoniae growth inhibition
# Excerpt: The following non-limitative Examples illustrate the invention. […] This activity is expressed in units (u) per mg. for solid products and in units per cc. for solutions. (The unit is defined as the smallest quantity of product which, dissolved in 1 cc. of an appropriate medium, inhibits the growth of Klebsiella pneumoniae under the conditions in question.)
smiles,measurement,setting,value
COc1cccc2c1C(=O)c1c(O)c3c(c(O)c1C2=O)C[C@@](O)(C(C)=O)C[C@@H]3O[C@H]1C[C@H](N)[C@H](O)[C@H](C)O1 [13057 RP hydrochloride],solubility in chloroform,Solubility; chloroform,slightly soluble
same,solubility in water,Solubility,soluble
COc1cccc2c1C(=O)c1c(O)c3c(c(O)c1C2=O)C[C@@](O)(C(C)=O)C[C@@H]3O[C@H]1C[C@H](N)[C@H](O)[C@H](C)O1 [13057 RP],bacteriostatic activity,numerous bacteria,exerted against numerous bacteria
same,anti-cancer activity,[1],most interesting of the new antibiotics
same,anti-cancer activity,[1]; listed as 13057 R.P.,very pronounced
same,solubility in benzene,Solubility; benzene,particularly insoluble
same,solubility in diethyl ether,Solubility; diethyl ether,particularly insoluble
same,solubility in ketones,Solubility; ketones,very slightly soluble
same,solubility in water,Solubility,very slightly soluble
same,activity,Klebsiella pneumoniae,160 μ/mg.
